Experimental data as given in PubChem BioAssay AID489033 (Sanford-Burnham Center for Chemical Genomics, 2010).
Active and inactive are the calls of the source. No rule for the calls is given here.

Tested on: 697B B-cell line, NF-kB luciferase reporter luminescence
Test: inhibitors of B-cell NF-kB luciferase signal – 697B cells, luminescence, selectivity assay for T-cell antigen receptor NF-kB inhibitors, dose response (AID 489033)

Row | Structure (SMILES) | IC50
1 | Cc1cc(NC(=O)CSc2nc3ccccc3c(=O)n2C2CCCC2)no1 | > 80 µM (inactive)
2 | C[C@]12CCC3C(CCC4=CC(O)CC[C@@]43/C=N/O)C1(O)CCC2C1=CC(=O)OC1 (stereo not given in full) | 2.58 µM
3 | Cc1ccc2nc(-c3ccc4c(c3)OCCO4)cn2c1 | 0.47 µM
4 | O=C1C=C(c2ccc3ncccc3c2)C[C@@H](c2ccc3c(c2)OCO3)C1 | > 80 µM (inactive)
5 | C[C@]12CC[C@H](O)C[C@H]1CC[C@@H]1[C@@H]2CC[C@]2(C)[C@@H](C3=CC(=O)OC3)CC[C@]12O | 0.67 µM
6 | CC(=O)O[C@H]1C(=O)[C@@]2(C)[C@H]([C@H](OC(=O)c3ccccc3)[C@]3(O)C[C@H](OC(=O)[C@H](O)[C@@H](NC(=O)c4ccccc4)c4ccccc4)C(C)=C1C3(C)C)[C@]1(OC(C)=O)CO[C@@H]1C[C@@H]2O | > 80 µM (inactive)
7 | Cc1nc(Sc2nnnn2C)c2c3c(sc2n1)CCC3 | > 80 µM (inactive)
8 | CCOC(=O)C(C)Oc1cccc2c(=O)n(CC(=O)NCc3ccccc3)ccc12 (stereo not given) | > 80 µM (inactive)
9 | COc1ccccc1N1CCN(C(=O)c2cc(=O)c3cc(C)cc(C)c3o2)CC1 | > 80 µM (inactive)
10 | COc1cccc(/C=N/Nc2ncnc3scc(-c4ccccc4)c23)c1O | 39.8 µM (inactive)
11 | Cc1ccc(NC(=O)CSc2nc(-c3ccco3)cc(C(F)(F)F)n2)cc1C | > 80 µM (inactive)
12 | O=C1CC(c2cccc(Br)c2)c2cc3c(cc2N1)CCC3 (stereo not given) | 30.7 µM (inactive)
13 | Cc1ccc2c(c1)Oc1ccc(NC(=O)CCl)cc1C(=O)N2 | 0.72 µM
14 | COc1ccc(CNC(=O)c2c(C)oc3c2C(=O)c2ccccc2C3=O)cc1 | > 80 µM (inactive)
15 | CCOC(=O)c1ccccc1NS(=O)(=O)c1ccc(OCC)cc1 | > 80 µM (inactive)
16 | Cc1ccc(/C=N/NC(=O)c2c(C)nc3ccc(Br)cn23)cc1 | > 80 µM (inactive)
17 | COc1ccc(C[C@H](N)C(=O)N[C@H]2[C@@H](O)[C@H](n3cnc4c(N(C)C)ncnc43)O[C@@H]2CO)cc1 | 1.62 µM
18 | CC(=O)O[C@H]1C(=O)[C@]2(C)[C@H]([C@H](OC(=O)c3ccccc3)[C@]3(O)C[C@H](OC(=O)[C@H](O)[C@@H](NC(=O)c4ccccc4)c4ccccc4)C(C)=C1C3(C)C)[C@]1(OC(C)=O)CO[C@@H]1C[C@@H]2O | > 80 µM (inactive)
19 | COC(=O)C(Cc1ccc(N(CCCl)CCCl)cc1)N=Cc1ccccc1O (stereo not given) | 0.31 µM
20 | COc1cc(Nc2ccc(C)cc2)c([N+](=O)[O-])nc1[N+](=O)[O-] | > 80 µM (inactive)
21 | CC(=O)c1sc2c(c1OC(=O)c1ccc(Cl)cc1Cl)c(=O)n(-c1ccccc1)c(=S)n2-c1ccccc1 | 1.93 µM
22 | Oc1ccc2ccccc2c1N=Nc1ccccn1 | 3.22 µM
23 | Cc1ccccc1NS(=O)(=O)c1ccc(N2CCCC2=O)cc1 | > 80 µM (inactive)
24 | CCN1C=CC(=C2C(=O)c3ccccc3C2=O)C=C1 | 1.13 µM

Row | Structure (SMILES) | IC50
25 | CC(C)c1ccc(/C=N/Nc2ccc(C(=O)O)cc2)cc1 | 10.7 µM
26 | CCO[C@@H]1OC(C(=O)NCc2nc3ccccc3[nH]2)=C[C@H](C(C)(C)C)[C@H]1CCCO | > 80 µM (inactive)
27 | CN(Cc1ccccc1)C1=CC(=[N+]2CCCC2)CC(C)(C)C1 | > 80 µM (inactive)
28 | Cc1cccc(N(C)S(=O)(=O)c2ccc(-c3cnc(C4CC4)o3)cc2)c1 | > 80 µM (inactive)
29 | Cc1ccc(N/C(N)=N/c2nc(CSc3nnc(C)s3)cc(=O)[nH]2)c(C)c1 | > 80 µM (inactive)
30 | CCCCCCCCCn1c2c(c(=N)c3c1CCC3)CCC2 | 10.7 µM
31 | CCOC(=O)C1CCN(S(=O)(=O)c2c(Cl)ccc3nonc23)CC1 | 1.06 µM
32 | COc1cc(CC(=O)OCC(=O)c2ccc3c(c2)OCCO3)cc(OC)c1OC | > 80 µM (inactive)
33 | Cc1cc(C)cc(NC(=O)c2ccc([N+](=O)[O-])o2)c1 | 21.3 µM (inactive)
34 | COC(=O)c1cnc(Oc2ccc(NC(=O)NC(=O)c3c(F)cccc3Cl)cc2)cc1C(F)(F)F | > 80 µM (inactive)
35 | CCCc1cc(C(=O)Nc2cc(C)ccc2O)no1 | > 80 µM (inactive)
36 | CCOC(=O)c1[nH]c(C)c(C(=O)Nc2cc(Cl)ccc2C)c1C | > 80 µM (inactive)
37 | C=C(C)C(=O)O[C@H]1C/C(C)=C\C(=O)/C=C(\C)[C@H](O)[C@@H]2OC(=O)C(=C)[C@@H]21 | 1.06 µM
38 | Cn1nc([N+](=O)[O-])nc1Sc1nnc(-c2ccccc2)o1 | 17.8 µM
39 | COc1cc2c(c(OC)c1OC)-c1ccc(OC)c(=O)cc1[C@@H](N(C)CC#CCO)CC2 | > 80 µM (inactive)
40 | O=C(N/N=C/c1c(O)ccc2ccccc12)c1ccc(Br)o1 | > 80 µM (inactive)
41 | O=C(COc1ccccc1-c1ccccc1)N/N=C/c1cccc2ccccc12 | > 80 µM (inactive)
42 | COc1ccc(COC(=O)c2cc([N+](=O)[O-])ccc2N2CCOCC2)cc1F | 37.1 µM (inactive)
43 | Nc1nc2n[nH]nc2c(=O)[nH]1 | 2.56 µM
44 | CC(Oc1ccc(Cl)cc1Cl)C(=O)Nc1ccncc1 (stereo not given) | > 80 µM (inactive)
45 | Cc1ccc(/C=C/c2ccc(N(C)C)cc2)[n+](C)c1 | > 80 µM (inactive)
46 | COc1cc2c(c(OC)c1OC)-c1ccc(O)cc1[C@@H](NC(C)=O)CC2 | > 80 µM (inactive)
47 | CNC[C@H](CC1CCCCC1)NC[C@H](Cc1ccccc1)NCCC12CC3CC(CC(C3)C1)C2 | 7.73 µM
48 | CCCC(=O)NC(c1ccc(C)cc1)c1ccc2cccnc2c1O (stereo not given) | > 80 µM (inactive)

Row | Structure (SMILES) | IC50
49 | CC/C=C/CC(=O)N[C@@H](c1ccccc1)[C@@H](O)C(=O)O[C@H]1C[C@@]2(O)[C@@H](OC(=O)c3ccccc3)C3[C@](C)(C(=O)[C@H](OC(C)=O)C(=C1C)C2(C)C)[C@@H](O)C[C@H]1OC[C@@]31OC(C)=O (stereo not given in full) | > 80 µM (inactive)
50 | CCCOc1ccccc1C1CC(=O)Nc2cc3c(cc21)OCO3 (stereo not given) | > 80 µM (inactive)
51 | O=C(Nc1ccc(Cc2ccncc2)cc1)c1ccc(S(=O)(=O)N2CCCC2)cc1 | 5.3 µM
52 | CCN1/C(=C/c2ccc3cc(C)ccc3[n+]2CC)Sc2ccc3sccc3c21 | 9.39 µM
53 | Cc1ccc2[nH]c3c(c2c1)CCCC3NC(=O)CCl (stereo not given) | 1.67 µM
54 | COc1cc(NCCCCCCCN)c2ncccc2c1 | 41.4 µM (inactive)
55 | C=CC[C@@H](CC/C=C/C=C/CC/C=C\[C@@H]1CSC([C@@H]2C[C@@H]2C)=N1)OC | 15.3 µM
56 | CCOc1cccc(-c2nnc3n2N=C(c2cc(OC)ccc2OC)CS3)c1 | > 80 µM (inactive)
57 | CSc1nccc(-c2nn(-c3ccc(C)cc3)ccc2=O)n1 | > 80 µM (inactive)
58 | CC(C)Nc1ccc(C(CC(N)=O)NC(=O)Cc2ccc(Br)cc2)cc1[N+](=O)[O-] (stereo not given) | 37.8 µM (inactive)
59 | COc1ccc(NS(=O)(=O)c2cc(-c3cnc(C4CC4)o3)ccc2C)cc1 | > 80 µM (inactive)
60 | COc1ccc(/C=N\NC(=O)c2ccccc2F)cc1COc1ccc(F)cc1F | > 80 µM (inactive)
61 | Cc1ccc(-c2nc(-c3ccccn3)no2)cc1 | 3.78 µM
62 | COc1ccc(NC(=O)C(=O)NCC2CCCN2S(=O)(=O)c2ccc(C)cc2)cc1 (stereo not given) | > 80 µM (inactive)
63 | COc1ccc(S(=O)(=O)Nc2cccc(-c3ccc4nncn4n3)c2)cc1F | > 80 µM (inactive)
64 | COc1ccc(NC(=O)Cn2nnc(-c3ccccc3NS(=O)(=O)c3ccc(OC)cc3)n2)cc1 | > 80 µM (inactive)
65 | CCN(CC)c1ccc(/C=C/c2ccc3ccc(OC)cc3[n+]2CC)cc1 | 2.84 µM
66 | CCCCCc1ccc(OCCCC[n+]2ccc(C)cc2)c(CCCCC)c1 | 4.21 µM
67 | Clc1ccc2c(c1)C(C1=NCCN1)c1ccccc1CS2 (stereo not given) | > 80 µM (inactive)
68 | CCCC(=O)NC(c1ccc(OC)cc1)c1ccc2cccnc2c1O (stereo not given) | > 80 µM (inactive)
69 | COC(=O)C1=C(CN2CCCc3ccccc32)NC(=O)NC1c1ccc(F)cc1 (stereo not given) | 3.48 µM
70 | Cc1ccc(C)c(CSc2nc3[nH]ncc3c(=O)[nH]2)c1 | 15.7 µM
71 | Cc1noc(C)c1CSc1nc2ccccc2c(=O)n1-c1ccccc1 | > 80 µM (inactive)
72 | COc1ccc(Nc2nc(-c3sc(C)nc3C)cs2)cc1 | > 80 µM (inactive)

Row | Structure (SMILES) | IC50
73 | CCCCN=C[C@]12CCC(O)CC1(O)CCC1[C@@H]2CC[C@]2(C)[C@H](C3C=CC(=O)O3)CCC12O (stereo not given in full) | 2.49 µM
74 | CCOC(=O)COc1cccc2c(=O)n(CC(=O)NCc3ccc(F)cc3)ccc12 | > 80 µM (inactive)
75 | Cc1c(C(=O)N/N=C/c2ccc(Cl)cc2)[nH]c2ccc(Cl)cc12 | > 80 µM (inactive)
76 | CC1(C)C[C@H]2C=C(C=O)[C@]3(C=O)C[C@]3(C)[C@H]2C1 | 7.97 µM
77 | O=C(N/N=C(\c1ccccc1)c1cccnc1)c1cccc(F)c1 | 3.1 µM
78 | COc1cccc(N2CCN(c3ncnc4c3cnn4-c3ccc(C)cc3C)CC2)c1 | 1.58 µM
79 | COc1cc(C2C3=C(Nc4ncnn42)c2ccccc2CC3)cc(OC)c1OC (stereo not given) | > 80 µM (inactive)
80 | Cn1nc(C(C)(C)C)cc1C(=O)NCc1cc(F)cc2c1OCOC2 | > 80 µM (inactive)
81 | CC(=O)NC(c1ccc2ccccc2c1)c1ccc2cccnc2c1O (stereo not given) | > 80 µM (inactive)
82 | O=C(Nc1ccc(C(F)(F)F)cc1)c1cccn(Cc2ccc3c(c2)OC(F)(F)O3)c1=O | > 80 µM (inactive)
83 | Cc1ccc(/C=N/NC(=O)C2COc3ccccc3O2)s1 (stereo not given) | 45.6 µM (inactive)
84 | O=C(Nc1ccc(Oc2cccnc2)nc1)c1ccc(C(F)(F)F)cc1 | 0.25 µM
85 | O=C(c1ccc(Cl)cc1)c1cc([N+](=O)[O-])ccc1N1CCOCC1 | 76 µM (inactive)
86 | Cc1ccc(Nc2nc(-c3c(C)nc4ncccn34)cs2)cc1 | > 80 µM (inactive)
87 | CC(=O)NC(c1ccc(C(C)C)cc1)c1ccc2cccnc2c1O (stereo not given) | > 80 µM (inactive)
88 | CCOC(=O)c1[nH]c(C=O)c(C(=O)OCC)c1C | 59.5 µM (inactive)
89 | O=C(c1cc(-c2ccncc2)nc2c(Cl)cccc12)N1CCN(c2ccccc2F)CC1 | > 80 µM (inactive)
90 | CC1Cc2cc(-c3csc(NC(=O)Cc4cccs4)n3)ccc2N1S(C)(=O)=O (stereo not given) | 13.9 µM
91 | CCOc1ccc(Nc2cc(C)nc(-n3nc(C)cc3C)n2)cc1 | > 80 µM (inactive)
92 | O=C1/C(=C/c2ccc(N3CCOCC3)o2)SC(=Nc2ccccc2)N1CCc1c[nH]c2ccccc12 | 12.8 µM
93 | COC(=O)c1ccc(C)c(NS(=O)(=O)c2ccc3c(c2)OCCO3)c1 | > 80 µM (inactive)
94 | COc1cccc(N2CCN(C(=O)c3ccc(CS(=O)c4ccccc4Cl)o3)CC2)c1 (stereo not given) | 69.8 µM (inactive)
95 | CC(C)n1c(CN(C)Cc2ccccc2)nc2c1c(=O)n(C)c(=O)n2C | 43.7 µM (inactive)
